From the supplement of paper PMC8960247
± gives the standard error.

Columns and labels:
[1] = system: 621-102 (TSC2-deficient); test: relative viability vs DMSO; higher = less cytotoxic; conditions: serum: 10% FBS, 72 h
[2] = system: 621-103 (TSC2-rescued); test: as above; conditions: serum: 10% FBS, 72 h
[3] = system: 621-102 (TSC2-deficient); test: relative viability vs DMSO (fraction); higher = less cytotoxic; conditions: serum: 0.1% FBS, 72 h
[4] = system: UMB1949 (TSC2-deficient); test: as above; conditions: serum: 0.1% FBS, 72 h;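 note: renal angiomyolipoma cell lines screened in 384-well plates, viability normalized per plate to DMSO-treated cells, each plate carrying 50 nM rapamycin and 1 µM staurosporine controls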

SMILES | relative viability ([1]; 0.0001 µM) [%] | relative viability ([1]; 0.001 µM) [%] | relative viability ([1]; 0.01 µM) [%] | relative viability ([1]; 0.1 µM) [%] | relative viability ([1]; 1 µM) [%] | relative viability ([1]; 10 µM) [%] | relative viability ([2]; 0.0001 µM) [%] | relative viability ([2]; 0.001 µM) [%] | relative viability ([2]; 0.01 µM) [%] | relative viability ([2]; 0.1 µM) [%] | relative viability ([2]; 1 µM) [%] | relative viability ([2]; 10 µM) [%] | relative viability ([3]; 0.0128 nM) | relative viability ([3]; 0.064 nM) | relative viability ([3]; 0.32 nM) | relative viability ([3]; 1.6 nM) | relative viability ([3]; 8 nM) | relative viability ([3]; 40 nM) | relative viability ([3]; 200 nM) | relative viability ([3]; 1000 nM) | relative viability ([3]; 5000 nM) | relative viability ([4]; 0.0128 nM) | relative viability ([4]; 0.064 nM) | relative viability ([4]; 0.32 nM) | relative viability ([4]; 1.6 nM) | relative viability ([4]; 8 nM) | relative viability ([4]; 40 nM) | relative viability ([4]; 200 nM) | relative viability ([4]; 1000 nM) | relative viability ([4]; 5000 nM)
CNC(=O)c1cc(Oc2ccc(NC(=O)Nc3cc(C(C)(C)C)nn3-c3ccc4ncccc4c3)c(F)c2)ccn1 [DCC-2036] | 100 ± 5.8 | 97.14 ± 0.62 | 92.2 ± 4.6 | 87 ± 1.4 | 87.2 ± 2 | 9.801 ± 0.031 | 96.92 ± 0.83 | 98.2 ± 4.1 | 90.7 ± 1.8 | 69.51 ± 0.61 | 59.4 ± 0.26 | 9.01 ± 0.21 | 1.65 | 1.68 | 1.69 | 1.63 | 1.59 | 1.62 | 1.43 | 0.931 | 0.0177 | 1.18 | 1.26 | 1.25 | 1.24 | 1.32 | 0.354 | 1.05 | 0.00706 | 0.00896
Nc1ncn([C@H]2C[C@H](O)[C@@H](CO)O2)c(=O)n1 [Decitabine] | 104 ± 11 | 94.3 ± 5.7 | 98.29 ± 0.53 | 98.5 ± 1.5 | 80.2 ± 4.8 | 93.1 ± 7.1 | 112 ± 7.6 | 102.5 ± 0.51 | 95.65 ± 0.75 | 95.7 ± 3.1 | 85.5 ± 6.7 | 83.8 ± 3.4 | 1 | 0.906 | 1 | 0.888 | 0.803 | 0.544 | 0.312 | 0.104 | 0.0392 | 1.08 | 1.04 | 0.99 | 0.967 | 1.08 | 0.973 | 0.635 | 0.277 | 0.155
CO[C@H]1C[C@@H]2CC[C@@H](C)[C@@](O)(O2)C(=O)C(=O)N2CCCC[C@H]2C(=O)O[C@H]([C@H](C)C[C@@H]2CC[C@@H](OP(C)(C)=O)[C@H](OC)C2)CC(=O)[C@H](C)/C=C(\C)[C@@H](O)[C@@H](OC)C(=O)[C@H](C)C[C@H](C)/C=C/C=C/C=C/1C [Deforolimus(MK-8669)] | 47.2 ± 1.4 | 56.5 ± 2.7 | 56.6 ± 1.4 | 51.2 ± 2 | 47.9 ± 3 | 48.8 ± 5.1 | 64.9 ± 4.2 | 64.215 ± 0.057 | 68.4 ± 2.7 | 69.1 ± 1.9 | 64.44 ± 0.59 | 67.4 ± 1.6 | 0.609 | 0.552 | 0.523 | 0.466 | 0.466 | 0.493 | 0.373 | 0.281 | 0.284 | 0.988 | 0.964 | 0.973 | 0.932 | 0.899 | 0.802 | 0.693 | 0.381 | 0.459
C=C1C[C@@H]2[C@H](CC[C@]3(C)C(=O)CC[C@@H]23)[C@@]2(C)C=CC(=O)C=C12 [Exemestane] | 130 ± 2.1 | 122 ± 5.8 | 119 ± 1.2 | 114 ± 3.2 | 113 ± 5.9 | 105 ± 3.4 | 100.1 ± 0.24 | 101 ± 2.2 | 104 ± 1.6 | 100 ± 1.2 | 97.5 ± 1.4 | 92.3 ± 2.7 | 1.16 | 1.08 | 1.02 | 0.948 | 1.06 | 1.11 | 1.12 | 0.94 | 0.891 | 0.936 | 0.98 | 0.996 | 1.01 | 1.08 | 1.02 | 0.927 | 0.859 | 0.773
